Laboratory results published in ChEMBL document CHEMBL1127612, “Maleimidoethyl 3-(tri-n-butylstannyl)hippurate: a useful radioiodination reagent for protein radiopharmaceuticals to enhance target selective radioactivity localization” (J Med Chem, 1994).

How the values were obtained:
Details in all cases: in vivo
Mus musculus [1] = experiment: Tested for biodistribution of radioactivity after 1 hr of intravenous injection in mice blood; type: ADME, organism-based
Mus musculus [2] = experiment: Tested for biodistribution of radioactivity after 3h of intravenous injection in mice blood; type: ADME, organism-based
Mus musculus [3] = experiment: Tested for biodistribution of radioactivity after 48 hr of intravenous injection in mice blood; type: ADME, organism-based
Mus musculus [4] = experiment: Tested for biodistribution of radioactivity after 6 hr of intravenous injection in mice blood; type: ADME, organism-based
Mus musculus [5] = experiment: Tested for biodistribution of radioactivity after 72 hr of intravenous injection in mice blood; type: ADME, organism-based
Mus musculus [6] = experiment: Tested for biodistribution of radioactivity after 48 hr of intravenous injection in mice stomach; type: ADME, organism-based
Mus musculus [7] = experiment: Tested for biodistribution of radioactivity after 6 hr of intravenous injection in mice intestine; type: ADME, organism-based
Mus musculus [8] = experiment: Tested for biodistribution of radioactivity after 48 hr of intravenous injection in mice intestine; type: ADME, organism-based
Mus musculus [9] = experiment: Tested for biodistribution of radioactivity after 48 hr of intravenous injection in mice kidneys; type: ADME, organism-based
Mus musculus [10] = experiment: Tested for biodistribution of radioactivity after 48 hr of intravenous injection in mice liver; type: ADME, organism-based
Mus musculus [11] = experiment: Tested for biodistribution of radioactivity after 48 hr of intravenous injection in mice lung; type: ADME, organism-based
Mus musculus [12] = experiment: Tested for biodistribution of radioactivity after 48 hr of intravenous injection in mice neck; type: ADME, organism-based
Mus musculus [13] = experiment: Tested for biodistribution of radioactivity after 48 hr of intravenous injection in mice spleen; type: ADME, organism-based
Mus musculus [14] = experiment: Tested for biodistribution of radioactivity after 6 hr of intravenous injection in mice kidneys; type: ADME, organism-based, Kidney
Mus musculus [15] = experiment: Tested for biodistribution of radioactivity after 6 hr of intravenous injection in mice liver; type: ADME, organism-based
Mus musculus [16] = experiment: Tested for biodistribution of radioactivity after 6 hr of intravenous injection in mice lung; type: ADME, organism-based
Mus musculus [17] = experiment: Tested for biodistribution of radioactivity after 6 hr of intravenous injection in mice neck; type: ADME, organism-based
Mus musculus [18] = experiment: Tested for biodistribution of radioactivity after 10 min of intravenous injection in mice blood; type: ADME, organism-based
Mus musculus [19] = experiment: Tested for biodistribution of radioactivity after 10 min of intravenous injection in mice kidneys; type: ADME, organism-based
Mus musculus [20] = experiment: Tested for biodistribution of radioactivity after 10 min of intravenous injection in mice liver; type: ADME, organism-based
Mus musculus [21] = experiment: Tested for biodistribution of radioactivity after 10 min of intravenous injection in mice lung; type: ADME, organism-based
Mus musculus [22] = experiment: Tested for biodistribution of radioactivity after 3h of intravenous injection in mice intestine; type: ADME, organism-based
Mus musculus [23] = experiment: Tested for biodistribution of radioactivity after 3h of intravenous injection in mice kidneys; type: ADME, organism-based, Kidney
Mus musculus [24] = experiment: Tested for biodistribution of radioactivity after 3h of intravenous injection in mice lung; type: ADME, organism-based
Mus musculus [25] = experiment: Tested for biodistribution of radioactivity after 3h of intravenous injection in mice neck; type: ADME, organism-based
Mus musculus [26] = experiment: Tested for biodistribution of radioactivity after 3h of intravenous injection in mice spleen; type: ADME, organism-based
Mus musculus [27] = experiment: Tested for biodistribution of radioactivity after 3h of intravenous injection in mice stomach; type: ADME, organism-based
Mus musculus [28] = experiment: Tested for biodistribution of radioactivity after 10 min of intravenous injection in mice neck; type: ADME, organism-based
Mus musculus [29] = experiment: Tested for biodistribution of radioactivity after 10 min of intravenous injection in mice spleen; type: ADME, organism-based
Mus musculus [30] = experiment: Tested for biodistribution of radioactivity after 10 min of intravenous injection in mice stomach; type: ADME, organism-based
Mus musculus [31] = experiment: Tested for biodistribution of radioactivity after 1 hr of intravenous injection in mice intestine; type: ADME, organism-based
Mus musculus [32] = experiment: Tested for biodistribution of radioactivity after 1 hr of intravenous injection in mice liver; type: ADME, organism-based
Mus musculus [33] = experiment: Tested for biodistribution of radioactivity after 1 hr of intravenous injection in mice lung; type: ADME, organism-based
Mus musculus [34] = experiment: Tested for biodistribution of radioactivity after 6 hr of intravenous injection in mice spleen; type: ADME, organism-based
Mus musculus [35] = experiment: Tested for biodistribution of radioactivity after 6 hr of intravenous injection in mice stomach; type: ADME, organism-based
Mus musculus [36] = experiment: Tested for biodistribution of radioactivity after 72 hr of intravenous injection in mice intestine; type: ADME, organism-based
Mus musculus [37] = experiment: Tested for biodistribution of radioactivity after 72 hr of intravenous injection in mice liver; type: ADME, organism-based
Mus musculus [38] = experiment: Tested for biodistribution of radioactivity after 72 hr of intravenous injection in mice lung; type: ADME, organism-based
Mus musculus [39] = experiment: Tested for biodistribution of radioactivity after 72 hr of intravenous injection in mice neck; type: ADME, organism-based
Mus musculus [40] = experiment: Tested for biodistribution of radioactivity after 72 hr of intravenous injection in mice spleen; type: ADME, organism-based
Mus musculus [41] = experiment: Tested for biodistribution of radioactivity after 72 hr of intravenous injection in mice stomach; type: ADME, organism-based
Mus musculus [42] = experiment: Tested for biodistribution of radioactivity after 1 hr of intravenous injection in mice neck; type: ADME, organism-based
Mus musculus [43] = experiment: Tested for biodistribution of radioactivity after 1 hr of intravenous injection in mice spleen; type: ADME, organism-based
Mus musculus [44] = experiment: Tested for biodistribution of radioactivity after 1 hr of intravenous injection in mice stomach; type: ADME, organism-based
Mus musculus [45] = experiment: Tested for biodistribution of radioactivity after 24 hr of intravenous injection in mice feces; type: ADME, organism-based
Mus musculus [46] = experiment: Tested for biodistribution of radioactivity after 24 hr of intravenous injection in mice intestine; type: ADME, organism-based
Mus musculus [47] = experiment: Tested for biodistribution of radioactivity after 24 hr of intravenous injection in mice kidneys; type: ADME, organism-based, Kidney
Mus musculus [48] = experiment: Tested for biodistribution of radioactivity after 24 hr of intravenous injection in mice liver; type: ADME, organism-based
Mus musculus [49] = experiment: Tested for biodistribution of radioactivity after 24 hr of intravenous injection in mice lung; type: ADME, organism-based
Mus musculus [50] = experiment: Tested for biodistribution of radioactivity after 24 hr of intravenous injection in mice neck; type: ADME, organism-based
Mus musculus [51] = experiment: Tested for biodistribution of radioactivity after 24 hr of intravenous injection in mice spleen; type: ADME, organism-based
Mus musculus [52] = experiment: Tested for biodistribution of radioactivity after 24 hr of intravenous injection in mice stomach; type: ADME, organism-based
Mus musculus [53] = experiment: Tested for biodistribution of radioactivity after 3h of intravenous injection in mice liver; type: ADME, organism-based
Mus musculus [54] = experiment: Tested for biodistribution of radioactivity after 1 hr of intravenous injection in mice kidneys; type: ADME, organism-based, Kidney
Mus musculus [55] = experiment: Tested for biodistribution of radioactivity after 24 hr of intravenous injection in mice urine; type: ADME, organism-based
Mus musculus [56] = experiment: Tested for biodistribution of radioactivity after 24 hr of intravenous injection in mice blood; type: ADME, organism-based
Mus musculus [57] = experiment: Tested for biodistribution of radioactivity after 10 min of intravenous injection in mice intestine; type: ADME, organism-based
Mus musculus [58] = experiment: Tested for biodistribution of radioactivity after 72 hr of intravenous injection in mice kidneys; type: ADME, organism-based

N[C@@H](CSC1CC(=O)N(CCOC(=O)CNC(=O)c2cccc(I)c2)C1=O)C(=O)O (stereo partly drawn)
Dose/g (Mus musculus [1]): 29.3%
Dose/g (Mus musculus [2]): 25.11%
Dose/g (Mus musculus [3]): 5.78%
Dose/g (Mus musculus [4]): 20.31%
Dose/g (Mus musculus [5]): 4.22%
Dose/organ (Mus musculus [6]): 0.2%
Dose/organ (Mus musculus [7]): 1.27%
Dose/organ (Mus musculus [8]): 0.4%
Dose/organ (Mus musculus [9]): 1.12%
Dose/organ (Mus musculus [10]): 1.53%
Dose/organ (Mus musculus [11]): 1.98%
Dose/organ (Mus musculus [12]): 0.16%
Dose/organ (Mus musculus [13]): 0.92%
Dose/organ (Mus musculus [14]): 4.45%
Dose/organ (Mus musculus [15]): 5.39%
Dose/organ (Mus musculus [16]): 7.6%
Dose/organ (Mus musculus [17]): 0.45%
Dose/organ (Mus musculus [18]): 33.64%
Dose/organ (Mus musculus [19]): 6.08%
Dose/organ (Mus musculus [20]): 9.81%
Dose/organ (Mus musculus [21]): 10.37%
Dose/organ (Mus musculus [22]): 1.93%
Dose/organ (Mus musculus [23]): 5%
Dose/organ (Mus musculus [24]): 8.06%
Dose/organ (Mus musculus [25]): 0.51%
Dose/organ (Mus musculus [26]): 3.67%
Dose/organ (Mus musculus [27]): 1.04%
Dose/organ (Mus musculus [28]): 0.34%
Dose/organ (Mus musculus [29]): 7.15%
Dose/organ (Mus musculus [30]): 0.54%
Dose/organ (Mus musculus [31]): 1.96%
Dose/organ (Mus musculus [32]): 8.51%
Dose/organ (Mus musculus [33]): 7.08%
Dose/organ (Mus musculus [34]): 3.19%
Dose/organ (Mus musculus [35]): 0.84%
Dose/organ (Mus musculus [36]): 0.28%
Dose/organ (Mus musculus [37]): 1.05%
Dose/organ (Mus musculus [38]): 1.52%
Dose/organ (Mus musculus [39]): 0.09%
Dose/organ (Mus musculus [40]): 0.49%
Dose/organ (Mus musculus [41]): 0.14%
Dose/organ (Mus musculus [42]): 0.75%
Dose/organ (Mus musculus [43]): 4.84%
Dose/organ (Mus musculus [44]): 0.92%
Dose/organ (Mus musculus [45]): 0.89%
Dose/organ (Mus musculus [46]): 0.67%
Dose/organ (Mus musculus [47]): 2.08%
Dose/organ (Mus musculus [48]): 2.46%
Dose/organ (Mus musculus [49]): 4.06%
Dose/organ (Mus musculus [50]): 0.32%
Dose/organ (Mus musculus [51]): 1.41%
Dose/organ (Mus musculus [52]): 0.28%
Dose/organ (Mus musculus [53]): 6.43%
Dose/organ (Mus musculus [54]): 5.35%
Dose/organ (Mus musculus [55]): 23.39%
Dose/g (Mus musculus [56]): 9.64%
Dose/organ (Mus musculus [57]): 0.8%
Dose/organ (Mus musculus [58]): 0.82%
